Target: T1, Human Nav1.8 (Homo sapiens, UniProt Q9Y5Y9)
T1 construct: expressed in transfected cells; host or cells: HEK293
Test: VIPR assay for Nav1.8 compounds (FRET membrane potential, deltamethrin-opened channels)
Assay type: cell-based
Conditions: HEK293 cells expressing human Nav1.8; deltamethrin as opener; read-out: affinity for the NaV1.8 channel (binding affinity; IC50 from VIPR assay)
Source text: The ability of the pyridine derivatives of the formula (I) to inhibit the NaV1.8 channel may be measured using the assay described below.
VIPR Assay for Nav1.8 Compounds
This screen is used to determine the effects of compounds on tetrodotoxin-resistant (TTX-R) sodium channels in Human Nav1.8 (HEK293) expressing cell line, utilising the technology of Aurora's fluorescent Voltage/Ion Probe Reader (VIPR). This experiment is based on FRET (Fluorescence Resonance Energy Transfer) and uses two fluorescent molecules. The first molecule, Oxonol (DiSBAC2(3)), is a highly fluorescent, negatively charged, hydrophobic ion that “senses” the trans-membrane electrical potential. […] The voltage dependent redistribution is transduced into a ratiometric fluorescent readout via a second fluorescent molecule (Coumarin (CC2-DMPE)) that binds specifically to one face of the plasma membrane and functions as a FRET partner to the mobile voltage-sensing ion. […]
2. […] Once the incubation is complete, the cells are ready to be assayed using the VIPR for sodium addback membrane potential.
The data was analyzed and reported as normalised ratios of intensities measured in the 460 nm and 580 nm channels. […]
Rf/Ri ratio values are plotted using Excel Labstats (curve fit) or analysed via ECADA to determine an IC50 value for each compound.

T1 sequence (Q9Y5Y9 whole entry): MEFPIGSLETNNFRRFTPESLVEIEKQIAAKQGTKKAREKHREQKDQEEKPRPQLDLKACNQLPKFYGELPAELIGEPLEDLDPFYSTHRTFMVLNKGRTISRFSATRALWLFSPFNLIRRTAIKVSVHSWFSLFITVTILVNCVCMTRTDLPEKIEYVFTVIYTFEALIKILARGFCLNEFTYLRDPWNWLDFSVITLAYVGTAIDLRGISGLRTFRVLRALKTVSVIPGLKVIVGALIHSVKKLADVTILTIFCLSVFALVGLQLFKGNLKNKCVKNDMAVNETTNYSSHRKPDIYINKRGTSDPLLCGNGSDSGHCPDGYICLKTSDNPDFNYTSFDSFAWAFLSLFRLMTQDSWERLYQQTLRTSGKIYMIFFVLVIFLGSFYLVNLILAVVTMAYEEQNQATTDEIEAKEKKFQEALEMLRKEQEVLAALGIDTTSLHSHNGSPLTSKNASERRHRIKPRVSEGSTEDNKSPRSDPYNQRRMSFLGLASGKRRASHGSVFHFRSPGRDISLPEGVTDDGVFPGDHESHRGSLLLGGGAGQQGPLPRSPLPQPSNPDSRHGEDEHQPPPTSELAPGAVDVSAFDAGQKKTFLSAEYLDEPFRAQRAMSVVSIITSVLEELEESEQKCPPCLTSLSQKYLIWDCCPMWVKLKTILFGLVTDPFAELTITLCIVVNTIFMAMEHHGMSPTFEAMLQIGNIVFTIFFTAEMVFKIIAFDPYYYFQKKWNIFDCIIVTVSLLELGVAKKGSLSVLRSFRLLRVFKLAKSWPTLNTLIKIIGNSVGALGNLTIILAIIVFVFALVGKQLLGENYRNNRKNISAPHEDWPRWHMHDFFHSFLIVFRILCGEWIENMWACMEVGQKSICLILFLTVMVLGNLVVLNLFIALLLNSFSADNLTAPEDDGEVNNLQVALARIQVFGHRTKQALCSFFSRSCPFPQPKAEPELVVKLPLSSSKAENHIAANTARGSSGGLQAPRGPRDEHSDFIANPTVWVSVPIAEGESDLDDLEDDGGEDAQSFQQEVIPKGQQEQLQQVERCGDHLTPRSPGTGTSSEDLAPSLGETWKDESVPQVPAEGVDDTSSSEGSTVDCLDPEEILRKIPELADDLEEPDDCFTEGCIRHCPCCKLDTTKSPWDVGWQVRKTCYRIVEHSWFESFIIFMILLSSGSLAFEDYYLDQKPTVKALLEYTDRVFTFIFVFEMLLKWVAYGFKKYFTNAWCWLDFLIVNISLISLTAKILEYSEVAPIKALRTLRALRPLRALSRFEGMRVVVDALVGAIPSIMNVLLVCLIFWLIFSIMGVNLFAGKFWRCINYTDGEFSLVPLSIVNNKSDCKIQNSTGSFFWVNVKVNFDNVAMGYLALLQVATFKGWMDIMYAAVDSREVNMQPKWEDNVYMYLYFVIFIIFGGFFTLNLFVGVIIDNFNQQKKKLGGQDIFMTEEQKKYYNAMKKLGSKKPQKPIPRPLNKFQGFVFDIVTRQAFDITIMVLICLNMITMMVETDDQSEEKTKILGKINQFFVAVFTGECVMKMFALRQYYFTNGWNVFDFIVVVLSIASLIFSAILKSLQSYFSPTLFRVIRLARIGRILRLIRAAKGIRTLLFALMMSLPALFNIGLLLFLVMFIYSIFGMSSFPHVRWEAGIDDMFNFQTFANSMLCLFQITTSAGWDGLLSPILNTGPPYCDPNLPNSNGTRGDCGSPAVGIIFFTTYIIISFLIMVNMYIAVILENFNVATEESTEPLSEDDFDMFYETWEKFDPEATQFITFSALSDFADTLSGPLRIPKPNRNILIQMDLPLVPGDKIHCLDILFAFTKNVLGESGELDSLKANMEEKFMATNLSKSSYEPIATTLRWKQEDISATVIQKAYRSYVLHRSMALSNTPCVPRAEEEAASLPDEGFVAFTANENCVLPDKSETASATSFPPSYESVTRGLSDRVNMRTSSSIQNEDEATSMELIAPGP

IC50: 2040 nM
SMILES: CNC(=O)c1ccc(-c2cc(Cl)cc(Cl)c2Cl)c(N)n1 [Example 1, 6-Amino-5-(2,3,5-trichloro-phenyl)-pyridine-2-carboxylic acid methylamide]

From patent publication US7649004B2, “Pyridine derivatives” (Pfizer, Inc., priority 2004, dated 2010)
